Source: patent US11634451B2, “Method for the site-specific enzymatic labelling of nucleic acids in vitro by incorporation of unnatural nucleotides” (The Scripps Research Institute, priority 2013, dated 2023)

Columns and labels:
T7 RNA polymerase = T7 RNA polymerase (Escherichia phage T7, UniProt P00573); details: ribonucleotide triphosphates, FIG. 7
[1] = PCR incorporation of d5SICS α-thiotriphosphate opposite dNaM; assay type: biochemical; details: standard PCR
Protocol: The amplification efficiency and fidelity of incorporation of d(5SICS-αS)TP is greater than 99% and virtually identical to results obtained with d5SICS. To functionalize this unnatural base pair, we reacted the site-specifically incorporated phosphorothioate bond with iodoacetyl-PEG2-biotin to label the DNA duplex with the biotin functionality.^8 To characterize this site-specific adduct, we incubated it in the presence of streptavidin and then quantified the functionalization by gel shift assay. We were able to convert 60-70% of the phosphorothioate bond to the functionalized derivative, which is a standard efficiency (70%) for labeling protocols previously reported in literature (See Fidanza, J. A.; Ozaki, H.; McLaughlin, L. W., Site-specific labeling of DNA sequences containing phosphorothioate diesters. J. Am. Chem. Soc. […], 114 (14), 5509-5517.). These conjugated derivatives show high stability under conditions typical for heat denaturation of DNA duplexes, i.e. at 50° C. overnight within the range of pH 6.0-8.3 (<10% decomposition), as well as for at 95° C. for 3 minutes at pH 8.3 (<5% decomposition). We envision that the phosphorothioate strategy can be equally well employed with other unnatural base pairs, including d5SICS-dMMO2 and d5SICS-dNaM.

T7 RNA polymerase, sequence (P00573 whole entry): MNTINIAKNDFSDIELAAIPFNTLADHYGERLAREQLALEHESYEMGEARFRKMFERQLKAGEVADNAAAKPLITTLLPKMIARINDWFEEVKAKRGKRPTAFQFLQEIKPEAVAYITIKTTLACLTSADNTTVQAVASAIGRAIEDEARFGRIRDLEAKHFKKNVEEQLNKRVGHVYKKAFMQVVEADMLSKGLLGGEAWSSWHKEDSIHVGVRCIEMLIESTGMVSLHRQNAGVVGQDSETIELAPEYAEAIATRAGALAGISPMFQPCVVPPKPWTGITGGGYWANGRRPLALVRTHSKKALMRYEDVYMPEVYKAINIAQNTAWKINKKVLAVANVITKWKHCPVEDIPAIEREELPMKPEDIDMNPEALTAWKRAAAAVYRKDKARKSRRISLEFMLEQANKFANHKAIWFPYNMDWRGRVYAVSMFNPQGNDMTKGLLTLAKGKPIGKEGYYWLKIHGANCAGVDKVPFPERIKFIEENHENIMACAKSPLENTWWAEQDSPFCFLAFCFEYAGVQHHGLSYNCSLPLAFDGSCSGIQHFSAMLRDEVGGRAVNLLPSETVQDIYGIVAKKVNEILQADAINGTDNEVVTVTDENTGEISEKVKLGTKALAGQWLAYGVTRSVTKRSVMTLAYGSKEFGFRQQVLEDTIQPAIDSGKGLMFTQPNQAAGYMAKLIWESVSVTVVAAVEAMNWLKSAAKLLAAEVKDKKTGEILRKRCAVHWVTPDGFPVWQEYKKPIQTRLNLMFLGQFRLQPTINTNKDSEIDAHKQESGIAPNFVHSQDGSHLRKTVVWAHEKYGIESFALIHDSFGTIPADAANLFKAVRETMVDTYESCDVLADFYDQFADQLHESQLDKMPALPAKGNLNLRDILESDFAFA

| Compound | transcription into RNA (T7 RNA polymerase) | amplification efficiency and fidelity of incorporation [1] |
| --- | --- | --- |
| COc1cc(C)c(C#CCNC(=O)C(Cl)Cl)cc1[C@@H]1O[C@H](COP(=O)(O)OP(=O)(O)OP(=O)(O)O)[C@@H](O)[C@H]1O [MMO2^PA] | high efficiency and fidelity |  |
| Cc1ccc2c(=S)n([C@H]3C[C@H](O)[C@@H](COP(O)(=S)OP(=O)(O)OP(=O)(O)O)O3)ccc2c1 (some centres unmarked) [d(5SICS-αS)TP] |  | greater than 99% |
